Experimental data from US20150044702A1, “MEANS AND METHODS FOR ASSESSING DISORDERS RELATED TO IMPAIRED IRON […] ENERGY METABOLISM” (BASF SE, priority 2012, published 2015).
Marks after values point to notes of the source that are not given here.

Test: 28-day rat study, plasma metabolite profiling: markers for Duodenum iron deficiency;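 further: rats given the compounds once a day across 28 days, plasma from fasted animals profiled by GC-MS and LC-MS, separate control groups of five rats per sex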
Conditions: for Cholic acid, treatment ratio versus control / Choline plasmalogen (C18,C20:4), treatment ratio versus control / Citrate, treatment ratio versus control / Creatinine, treatment ratio versus control / DAG (C18:1,C18:2), treatment ratio versus control / Hippuric acid, treatment ratio versus control / Indole-3-propionic acid, treatment ratio versus control / Methionine, treatment ratio versus control / Proline, treatment ratio versus control / Serine, treatment ratio versus control / TAG (C16:0,C18:1,C18:3), treatment ratio versus control / TAG (C18:1,C18:2), treatment ratio versus control / TAG (C18:2,C18:2), treatment ratio versus control / TAG (C18:2,C18:3), treatment ratio versus control / TAG (DAG-Fragment), treatment ratio versus control / TAG No 02, treatment ratio versus control / TAG No 07, treatment ratio versus control / Threonine, treatment ratio versus control / alpha-Tocopherol, treatment ratio versus control / Alanine, treatment ratio versus control / Campesterol, treatment ratio versus control / Glutamate, treatment ratio versus control / Glutamine, treatment ratio versus control / Lysophosphatidylcholine (C20:4), treatment ratio versus control / Malate, treatment ratio versus control / Ornithine, treatment ratio versus control / Phosphatidylcholine (C18:0, C22:6), treatment ratio versus control / Threonic acid, treatment ratio versus control: plasma
Protocol: A group of each 5 male and female rats was dosed once daily with the indicated compounds (see Table 4, below for compounds, applied doses and administration details) over 28 days.
Each dose group in the studies consisted of five rats per sex. Additional groups of each 5 male and female animals served as controls. Before starting the treatment period, animals, which were 62-64 days old when supplied, were acclimatized to the housing and environmental conditions for 7 days. All animals of the animal population were kept under the same constant temperature (20-24±3° C.) and the same constant humidity (30-70%). The animals of the animal population were fed ad libitum. The food to be used was essentially free of chemical or microbial contaminants. Drinking water was also offered ad libitum. Accordingly, the water was free of chemical and microbial contaminants as laid down in the European Drinking Water Directive 98/83/EG. The illumination period was 12 hours light followed by 12 hours darkness (12 hours light, from 6:00 to 18:00, and 12 hours darkness, from 18:00 to 6:00). The studies were performed in an AAALAC-approved laboratory in accordance with the German Animal Welfare Act and the European Council Directive 86/609/EE. The test system was arranged according to the OECD 407 guideline for the testing of chemicals for repeated dose 28-day oral toxicity study in rodents.
In the morning of day 7, 14, and 28, blood was taken from the retroorbital venous plexus from fasted anaesthetized animals. From each animal, 1 ml of blood was collected with EDTA as anticoagulant. The samples were centrifuged for generation of plasma. All plasma samples were covered with a N2 atmosphere and then stored at −80° C. until analysis.
For mass spectrometry-based metabolite profiling analyses plasma samples were extracted and a polar and a non-polar (lipid) fraction was obtained. For GC-MS analysis, the non-polar fraction was treated with methanol under acidic conditions to yield the fatty acid methyl esters. Both fractions were further derivatised with O-methyl-hydroxyamine hydrochloride and pyridine to convert Oxo-groups to O-methyloximes and subsequently with a silylating agent before analysis. In LC-MS analysis, both fractions were reconstituted in appropriate solvent mixtures. HPLC was performed by gradient elution on reversed phase separation columns.
Steroids and their metabolites were measured by online SPE-LC-MS (Solid phase extraction-LC-MS).
Following comprehensive analytical validation steps, the data for each analyte were normalized against data from pool samples. These samples were run in parallel through the whole process to account for process variability. The significance of treatment group values specific for sex, treatment duration and metabolite was determined by comparing means of the treated groups to the means of the respective untreated control groups using WELCH-test and quantified with treatment ratios versus control and p-values.

CNC(=O)/C(=N/OC)c1ccccc1CO/N=C(C)/C(=N/OC)C(/C)=N/OC [Orysastrobin, (2E)-2-(methoxyimino)-2-{2-[(3E,5E,6E)-5-(methoxyimino)-4,6-dimethyl-2,8-dioxa-3,7-diazanona-3,6-dien-1-yl]phenyl}-N-methylacetamide]
Cholic acid, treatment ratio versus control (female rats, day 7): 15.95
Choline plasmalogen (C18,C20:4), treatment ratio versus control (female rats, day 7): 1.18*
Citrate, treatment ratio versus control (female rats, day 7): 1.24*
Creatinine, treatment ratio versus control (female rats, day 7): 0.9
DAG (C18:1,C18:2), treatment ratio versus control (female rats, day 7): 2.21*
Hippuric acid, treatment ratio versus control (female rats, day 7): 0.91
Indole-3-propionic acid, treatment ratio versus control (female rats, day 7): 0.54
Methionine, treatment ratio versus control (female rats, day 7): 1.33*
Proline, treatment ratio versus control (female rats, day 7): 1.03
Serine, treatment ratio versus control (female rats, day 7): 1.32*
TAG (C16:0,C18:1,C18:3), treatment ratio versus control (female rats, day 7): 1.02
TAG (C18:1,C18:2), treatment ratio versus control (female rats, day 7): 1.34*
TAG (C18:2,C18:2), treatment ratio versus control (female rats, day 7): 1.63*
TAG (C18:2,C18:3), treatment ratio versus control (female rats, day 7): 1.37*
TAG (DAG-Fragment), treatment ratio versus control (female rats, day 7): 1.62*
TAG No 02, treatment ratio versus control (female rats, day 7): 1
TAG No 07, treatment ratio versus control (female rats, day 7): 1.19
Threonine, treatment ratio versus control (female rats, day 7): 1.83*
alpha-Tocopherol, treatment ratio versus control (female rats, day 7): 1.27*
Cholic acid, treatment ratio versus control (female rats, day 14): 2.8*
Choline plasmalogen (C18,C20:4), treatment ratio versus control (female rats, day 14): 1.13*
Citrate, treatment ratio versus control (female rats, day 14): 1.04
Creatinine, treatment ratio versus control (female rats, day 14): 1.08
DAG (C18:1,C18:2), treatment ratio versus control (female rats, day 14): 2.83*
Hippuric acid, treatment ratio versus control (female rats, day 14): 1.04
Indole-3-propionic acid, treatment ratio versus control (female rats, day 14): 0.73
Methionine, treatment ratio versus control (female rats, day 14): 1.12*
Proline, treatment ratio versus control (female rats, day 14): 1.08*
Serine, treatment ratio versus control (female rats, day 14): 1.26*
TAG (C16:0,C18:1,C18:3), treatment ratio versus control (female rats, day 14): 2.42*
TAG (C18:1,C18:2), treatment ratio versus control (female rats, day 14): 2.28*
TAG (C18:2,C18:2), treatment ratio versus control (female rats, day 14): 3.02*
TAG (C18:2,C18:3), treatment ratio versus control (female rats, day 14): 1.94*
TAG (DAG-Fragment), treatment ratio versus control (female rats, day 14): 3.03*
TAG No 02, treatment ratio versus control (female rats, day 14): 0.84*
TAG No 07, treatment ratio versus control (female rats, day 14): 1.99*
Threonine, treatment ratio versus control (female rats, day 14): 1.83*
alpha-Tocopherol, treatment ratio versus control (female rats, day 14): 1.24*
Cholic acid, treatment ratio versus control (female rats, day 28): 5.13*
Choline plasmalogen (C18,C20:4), treatment ratio versus control (female rats, day 28): 1.26*
Citrate, treatment ratio versus control (female rats, day 28): 1.08*
Creatinine, treatment ratio versus control (female rats, day 28): 0.84
DAG (C18:1,C18:2), treatment ratio versus control (female rats, day 28): 3.11*
Hippuric acid, treatment ratio versus control (female rats, day 28): 0.41*
Indole-3-propionic acid, treatment ratio versus control (female rats, day 28): 0.64*
Methionine, treatment ratio versus control (female rats, day 28): 1.11*
Proline, treatment ratio versus control (female rats, day 28): 1.1
Serine, treatment ratio versus control (female rats, day 28): 1.16*
TAG (C16:0,C18:1,C18:3), treatment ratio versus control (female rats, day 28): 1.86*
TAG (C18:1,C18:2), treatment ratio versus control (female rats, day 28): 1.98*
TAG (C18:2,C18:2), treatment ratio versus control (female rats, day 28): 1.79*
TAG (C18:2,C18:3), treatment ratio versus control (female rats, day 28): 1.63*
TAG (DAG-Fragment), treatment ratio versus control (female rats, day 28): 2.22*
TAG No 02, treatment ratio versus control (female rats, day 28): 1.02
TAG No 07, treatment ratio versus control (female rats, day 28): 1.5
Threonine, treatment ratio versus control (female rats, day 28): 1.58*
alpha-Tocopherol, treatment ratio versus control (female rats, day 28): 1.33*
Alanine, treatment ratio versus control (male rats, day 7): 1.15*
Campesterol, treatment ratio versus control (male rats, day 7): 1.14
Citrate, treatment ratio versus control (male rats, day 7): 1.12*
Creatinine, treatment ratio versus control (male rats, day 7): 1.04
Glutamate, treatment ratio versus control (male rats, day 7): 1.09
Glutamine, treatment ratio versus control (male rats, day 7): 0.96
Hippuric acid, treatment ratio versus control (male rats, day 7): 0.69
Lysophosphatidylcholine (C20:4), treatment ratio versus control (male rats, day 7): 0.86*
Malate, treatment ratio versus control (male rats, day 7): 1.17*
Methionine, treatment ratio versus control (male rats, day 7): 1.05*
Ornithine, treatment ratio versus control (male rats, day 7): 1.28*
Phosphatidylcholine (C18:0, C22:6), treatment ratio versus control (male rats, day 7): 1.39*
Serine, treatment ratio versus control (male rats, day 7): 1.17*
Threonic acid, treatment ratio versus control (male rats, day 7): 2.29*
Threonine, treatment ratio versus control (male rats, day 7): 1.28*
Alanine, treatment ratio versus control (male rats, day 14): 1.05
Campesterol, treatment ratio versus control (male rats, day 14): 1.07
Citrate, treatment ratio versus control (male rats, day 14): 1.04
Creatinine, treatment ratio versus control (male rats, day 14): 1.03
Glutamate, treatment ratio versus control (male rats, day 14): 0.77*
Glutamine, treatment ratio versus control (male rats, day 14): 0.81*
Hippuric acid, treatment ratio versus control (male rats, day 14): 0.58*
Lysophosphatidylcholine (C20:4), treatment ratio versus control (male rats, day 14): 0.77*
Malate, treatment ratio versus control (male rats, day 14): 1.08
Methionine, treatment ratio versus control (male rats, day 14): 1
Ornithine, treatment ratio versus control (male rats, day 14): 1.31*
Phosphatidylcholine (C18:0, C22:6), treatment ratio versus control (male rats, day 14): 1.34*
Serine, treatment ratio versus control (male rats, day 14): 1.1*
Threonic acid, treatment ratio versus control (male rats, day 14): 1.86*
Threonine, treatment ratio versus control (male rats, day 14): 1.23
Alanine, treatment ratio versus control (male rats, day 28): 1.02
Campesterol, treatment ratio versus control (male rats, day 28): 0.49*
Citrate, treatment ratio versus control (male rats, day 28): 1.09*
Creatinine, treatment ratio versus control (male rats, day 28): 1.16
Glutamate, treatment ratio versus control (male rats, day 28): 0.88
Glutamine, treatment ratio versus control (male rats, day 28): 0.71*
Hippuric acid, treatment ratio versus control (male rats, day 28): 0.48*
Lysophosphatidylcholine (C20:4), treatment ratio versus control (male rats, day 28): 0.81*
Malate, treatment ratio versus control (male rats, day 28): 1.16
Methionine, treatment ratio versus control (male rats, day 28): 1.1*
Ornithine, treatment ratio versus control (male rats, day 28): 1.21*
Phosphatidylcholine (C18:0, C22:6), treatment ratio versus control (male rats, day 28): 1.19*
Serine, treatment ratio versus control (male rats, day 28): 1.26*
Threonic acid, treatment ratio versus control (male rats, day 28): 2.17*
Threonine, treatment ratio versus control (male rats, day 28): 1.14*
capability of inducing an iron adsorption disorder (statement in words): capable of inducing an iron adsorption disorder
